The results in this text go back to patent US11059845B2, “Immune stimulating macrolides” (ISR IMMUNE SYSTEM REGULATION HOLDING AB (PUBL), priority 2017, dated 2021).

A word on the MIC: it is the lowest concentration that inhibits growth of the organism. High values mean a need for much substance, low ones inhibition by little substance.

Experiment [1] relates to PBMCs from CMV infected donors. Kind of experiment: IFN-gamma secretion from PBMCs of CMV infected donors with CMV antigen (cytometric bead assay). In kind it is cell-based, human. The note with it: 3 days. From the text:
FIG. 9: Interferon-gamma secretion (as measured by cytometric bead assay) from PBMCs (from a CMV+ donor) grown with CMV peptides in the presence or absence of compound 1 or A for […].
Study 8: PBMCs from CMV infected donors cultured in the presence of CMV antigen where either untreated or exposed to compound 1 or compound 2 for 3 days.

The subject of experiment [2] is Escherichia coli. In words: Minimum Inhibitory Concentration (MIC) assay. The note with it: anaerobic, 37° C., 18 h. In kind it is cell-based. As for the experimental part:
(§1) The bioactivity of macrolide compounds against 4 strains of common gut bacteria (Escherichia coli, Streptococcus salivarius subsp. salivarius, Lactobacillus casei and Bifidobacterium longum subsp. infantis) and common mammalian skin isolate Micrococcus luteus, was assessed using the Minimum Inhibitory Concentration (MIC) assay. Bacterial strains were purchased from DSMZ (Brunswick, Germany) except M. luteus which was obtained from NCIMB, and stored in 20% glycerol at −80° C. Stock solutions (100% DMSO) of positive controls (azithromycin and erythromycin), and of test compounds 1 and 2 were diluted in broth to working stock concentrations of 256 μg/ml (final assay testing concentration range 128 μg/ml to 0.00391 μg/ml). Stock solutions of all other compounds were diluted in broth to working stock concentrations of 128 μg/ml (final assay testing concentration range 64 μg/ml to 0.00195 μg/ml). Bacterial strains were cultivated in appropriate broth in an anaerobic chamber at 37° C., except for M. luteus which was incubated aerobically at 37° C. 18 h cultures were diluted in broth to an OD595 of 0.1 and then further diluted 1:10. In 96-well plates, in duplicate, 200 μl working stock of test compound was transferred to well 1 and serially diluted (1:2) in broth. 100 μl bacterial suspension was aliquoted into each well and mixed thoroughly. Appropriate sterility controls were included and plates were incubated in an anaerobic chamber, or aerobically (M. luteus) at 37° C. for 18 h. The MIC was determined to be the concentration of test compound in the first well with no visible growth.

Experiment [3] has as its system Micrococcus luteus. Kind of experiment: Minimum Inhibitory Concentration (MIC) assay. In kind it is cell-based. The note with it: aerobic, 37° C., 18 h. As for the experimental part:
as §1

Experiment [4] concerns Lactobacillus casei. Kind of experiment: Minimum Inhibitory Concentration (MIC) assay. It counts as cell-based. The note with it: Lacticaseibacillus casei; anaerobic, 37° C., 18 h. As for the experimental part: as §1
Experiment [5] concerns Streptococcus salivarius subsp. salivarius. In words: Minimum Inhibitory Concentration (MIC) assay. It counts as cell-based. The note with it: anaerobic, 37° C., 18 h. As for the experimental part: as §1
The test system of experiment [6] is Bifidobacterium longum subsp. infantis. Kind of experiment: Minimum Inhibitory Concentration (MIC) assay. It counts as cell-based. Conditions: anaerobic, 37° C., 18 h. As for the experimental part:
as §1

The subject of experiment [7] is CMV specific CD8+ T cells. In words: CMV cultures: phenotype of CMV specific CD8+ T cells. It counts as cell-based, human. The note with it: PBMCs from CMV infected donors, CMV antigen, 6 days. As for the experimental part: Human peripheral blood mononuclear cells (PBMCs) were purified from healthy CMV positive donors with Ficoll-Paque density centrifugation. The PBMC were labeled with 5 μM celltrace violet (Invitrogen) in PBS for 15 minutes and then washed with complete cell culture medium. The labeled PBMC was cultured in the presence of a peptide library spanning the CMV pp65 protein (1 μg peptide/ml, JPT) in AIM-V media (Invitrogen) supplemented with L-glutamine, Sodium pyruvate (Sigma), 10% fetal bovine serum, 100 μg/mL penicillin and 100 μg/mL streptomycin (Hyclone) for 6-8 days in 37° C., 5% CO2. Cell proliferation was assessed with flow cytomtery using a BD FACS Canto II flow cytometer.
Study 7: CMV virus specific T cell proliferation was also affected by compound 1. […] CD127 is crucial for T cell homeostasis, differentiation and function, and reduced expression correlates with disease severity in HIV and other chronic viral diseases (Crawley et al. 2012).

Experiment [8] concerns E. coli, S. salivarius, L. casei, B. longum or M. luteus. In words: Direct antibacterial activity, summary over all strains tested. In kind it is cell-based. The note with it: against the bacterial strains tested (Table 1). As for the experimental part: as §1

For the compound `CC[C@H]1OC(=O)[C@H](C)[C@@H](O[C@H]2C[C@@H](N(C)C)[C@H](O)[C@@H](C)O2)[C@H](C)[C@@H](O)[C@](C)(O)C[C@@H](C)CN(C)[C@H](C)[C@@H](O)[C@]1(C)O` [Compound 1], the “IFN-gamma secretion, PBMCs with CMV antigen” value in experiment [1] is “induced secretion of high levels of IFN-gamma”. Besides, the minimal inhibitory concentration (MIC) in experiment [2] is over 64 µg/mL; in experiment [3] it was over 256 µg/mL; in experiment [4] it was over 64 µg/mL; in experiment [5], over 64 µg/mL; in experiment [6], over 64 µg/mL. Moreover, in experiment [7], the “expression of IL-7 receptor α (CD127) on activated CMV specific CD8+ T cells” value was “increased expression”. Moreover, the antibacterial activity entry in experiment [8] is listed as “no antibacterial activity”.
